The source of these data is publication PMC6520677, “Marine Fungi from the Sponge Grantia compressa: Biodiversity, Chemodiversity, and Biotechnological Potential” (Marine Drugs, 2019).

The test system of data set [1] is methicillin-resistant Staphylococcus aureus (MRSA) Monza-PFI. Put plainly: MBC determination (plating of MIC wells). The data set is classed as cell-based. How it is done:
(§1) Plates were incubated at 37 °C in aerobic conditions or in 5% CO2 atmosphere and checked for bacterial growth after 24 h.

In data set [2] the test system is Enterococcus faecalis ATCC 29212. Kind of data set: MBC determination (plating of MIC wells). The data set is classed as cell-based. How it is done: as §1
Data set [3] deals with Staphylococcus aureus ATCC 29213. Kind of data set: MBC determination (plating of MIC wells). The data set is classed as cell-based. How it is done:
as §1

In data set [4] the test system is fluoroquinolone-resistant S. aureus Monza-FD1. Kind of data set: MBC determination (plating of MIC wells). As to conditions: Staphylococcus aureus. The data set is classed as cell-based. As for the experimental part: as §1
The subject of data set [5] is Streptococcus pneumoniae ATCC 49619. Kind of data set: MIC, broth microdilution (CLSI). The data set is classed as cell-based. Conditions: ATCC49619, S. pneumoniae ATCC 49619, read-out: MIC. A general note: Dilution methods test growth across graded concentrations, often in twofold steps.
The subject of data set [6] is reference and MRSA S. aureus strains. Also noted: method as in PMID 23024574. As to conditions: low concentration tested; cited from earlier work.
The test system of data set [7] is influenza A virus strain A/Puerto Rico/8/34 (IAV). Put plainly: Plaque reduction assay (PRA) on MDCK cells. The data set is classed as cell-based. On the technique in general: Plaque reduction counts the foci of infection that form in a cell layer.
Data set [8] has as its system Staphylococcus aureus ATCC 29213. Put plainly: MIC, broth microdilution (CLSI). The data set is classed as cell-based. Conditions: ATCC29213, S. aureus ATCC 29213, read-out: MIC.
The subject of data set [9] is Escherichia coli ATCC 25922. Put plainly: MIC, broth microdilution (CLSI). The data set is classed as cell-based. As to conditions: ATCC25922, E. coli ATCC 25922, read-out: MIC.
The test system of data set [10] is Enterococcus faecalis ATCC 29212. Kind of data set: MIC, broth microdilution (CLSI). The data set is classed as cell-based. As to conditions: ATCC29212, E. faecalis ATCC 29212, read-out: MIC.
Data set [11] has as its system macrolide-resistant S. pneumoniae Monza-82. Kind of data set: MIC, broth microdilution (CLSI). The data set is classed as cell-based, Streptococcus pneumoniae. Conditions: Streptococcus pneumoniae.
Data set [12] concerns Pseudomonas aeruginosa ATCC 27853. Put plainly: MIC, broth microdilution (CLSI). The data set is classed as cell-based. As to conditions: ATCC27853, P. aeruginosa ATCC 27853, read-out: MIC.
Data set [13] relates to macrolide-resistant S. pneumoniae Monza-82. Kind of data set: MBC determination (plating of MIC wells). The data set is classed as cell-based, Streptococcus pneumoniae. Conditions: for MBC: Streptococcus pneumoniae. As for the experimental part:
as §1

Data set [14] has as its system fluoroquinolone-resistant S. aureus Monza-FD1. Kind of data set: MIC, broth microdilution (CLSI). The data set is classed as cell-based, Staphylococcus aureus. Conditions: Staphylococcus aureus.
The subject of a further data set is S. aureus strains. Kind of data set: MIC, summary in text for S. aureus strains. Conditions: Staphylococcus aureus.
In data set [15] the test system is methicillin-resistant Staphylococcus aureus (MRSA) Monza-PFI. Kind of data set: MIC, broth microdilution (CLSI). The data set is classed as cell-based.
The nature of data set [16]: Cytotoxicity assay (CellTiter-Glo). As to conditions: dog. For orientation: ATP-based viability assays read luminescence as a measure of living cells.
Protocol: African green monkey kidney cells (VERO, ATCC-American Type Culture Collection CCL-81) and Madin Darby Canine Kidney cells (MDCK, ATCC® CRL-2936™) were propagated in Dulbecco’s modified Eagle medium (DMEM; Euroclone), supplemented with 10% fetal bovine serum (FBS; Euroclone), 2 mM L-glutamine, 1 mM sodium pyruvate, 100 U/mL penicillin, and 100 μg/mL streptomycin sulfate.
The plates were incubated for 48 h at 37 °C, and then 100 μL of CellTiter-Glo reagent (Promega) was added to lyse the cells and to determine cell viability according to the producer’s instructions.
For the next data set, the system named is MDCK cells. Kind of data set: Cytotoxicity assay (CellTiter-Glo). As to conditions: MDCK cells, lowest dose 12.5 µg/mL, 48 h.
Another data set has as its system Gram-positive bacteria. Kind of data set: MIC, summary in text for Gram-positive bacteria. As to conditions: majority of Gram-positive bacteria tested (except S. pneumoniae ATCC 49619).
Another data set relates to bacteria tested. Kind of data set: Bactericidal activity, whole panel (MBC). Conditions: most of the bacteria tested. The data set is classed as cell-based. As for the experimental part: as §1

Converted amounts (≈) assume the structure as drawn. Where two headings read alike, the source gives them in different places.

Protocol for Gram-positive bacteria: Representatives of Gram-positive and Gram-negative bacteria were selected for the antimicrobial susceptibility tests. Three Gram-positive reference strains (Staphylococcus aureus ATCC 29213, Streptococcus pneumoniae ATCC 49619, and Enterococcus faecalis ATCC 29212) and two Gram-negative reference strains (Escherichia coli ATCC 25922 and Pseudomonas aeruginosa ATCC 27853) were used. Furthermore, antibacterial activity of the isolated compounds was also assessed against recently isolated clinical strains, selected and characterized as resistant or multidrug-resistant (MDR), from the MicroMiB collection owned and maintained by the Laboratory of Clinical Microbiology and Virology of the University of Milano-Bicocca, Monza, Italy: a methicillin-resistant Staphylococcus aureus (MRSA) Monza-PFI, a fluoroquinolone-resistant S. aureus Monza-FD1, and a macrolide-resistant S. pneumoniae Monza-82.
MICs were determined following Clinical and Laboratory Standards Institute (CLSI) guidelines for the broth microdilution method [33]. […]
The plates were incubated at 37 °C for 18–24 h. After the incubation, each well was checked for the absence of bacterial pellets and the clearness of the solution; then, the MIC value (μg/mL), defined as the lowest concentration of antimicrobial agent causing visible inhibition of bacterial growth, was determined.

Usually MBC stands for the lowest tested concentration that kills the bacteria rather than only halting them. A word on the MIC: it is the smallest concentration in the dilution series that meets the test's criterion for growth inhibition. One may read the inhibition as how much of the control response was suppressed. On to `CCC/C=C/C=C/c1c(O)cc(CC=C(C)C)c(O)c1C=O` [Dihydroauroglaucin (4), dihydroauroglaucin], for which the minimum bactericidal concentration (MBC) was over 128 µg/mL in [1] (S. aureus Monza-PFI (MRSA), read-out: MBC); over 128 µg/mL in [2] (ATCC29212, E. faecalis ATCC 29212, read-out: MBC); over 128 µg/mL in data set [3] (ATCC29213, S. aureus ATCC 29213, read-out: MBC); over 128 µg/mL in [4] (S. aureus Monza-FD1 (fluoroquinolone-resistant), read-out: MBC); 32 µg/mL (≈ 107 µM) in data set [13] (S. pneumoniae Monza 82 (macrolide-resistant), read-out: MBC). Also, the MIC was over 128 µg/mL in [5]; 128 µg/mL (≈ 426 µM) in [8]; over 128 µg/mL in [9]; 64 µg/mL (≈ 213 µM) in data set [10]; 8 µg/mL (≈ 26.6 µM) in data set [11] (S. pneumoniae Monza 82 (macrolide-resistant), read-out: MIC); over 128 µg/mL in [12]. Besides, the minimal inhibitory concentration (MIC) in [14] (S. aureus Monza-FD1 (fluoroquinolone-resistant), read-out: MIC) was 128 µg/mL (≈ 426 µM); in the data set on S. aureus strains it was 128 µg/mL (≈ 426 µM); in [15] (S. aureus Monza-PFI (MRSA), read-out: MIC), 128 µg/mL (≈ 426 µM). Further, the antibacterial activity result in data set [6] was “inactive”. Also, the “inhibition of replication of IAV” value in [7] is recorded as “completely inhibited”. For the same molecule, the inhibition at 25 µg/mL in data set [7] (Influenza A virus, MDCK, 48 h, read-out: inhibition of replication of IAV) came to 100%. For the same molecule, the bactericidal activity entry in [13] (S. pneumoniae Monza-82 strain only) is “positive results”.
Broadly, the CC50 is the concentration giving 50% cytotoxicity. Read a low CC50 as harm at low concentration. For `C/C=C/C=C/CCc1c(O)cc(CC=C(C)C)c(O)c1C=O` [Isodihydroauroglaucin (6), isodihydroauroglaucin], in data set [16], the CC50 at 48 h is under 12.5 µg/mL. In the data set on MDCK cells, the “cell toxicity (not toxic = at least 70% cell viability)” value is recorded as “toxic”. Besides, the MBC in [1] (MRSA) is 128 µg/mL (≈ 426 µM); in [2] (ATCC29212), over 128 µg/mL; in data set [3] (ATCC29213), 128 µg/mL (≈ 426 µM); in [4] it was 64 µg/mL (≈ 213 µM); in data set [13], 16 µg/mL (≈ 53.3 µM). Besides, the MIC in data set [5] is over 128 µg/mL; in [8], 64 µg/mL (≈ 213 µM); in data set [9], over 128 µg/mL; in data set [10] it was 64 µg/mL (≈ 213 µM); in data set [11], 4 µg/mL (≈ 13.3 µM); in data set [12], over 128 µg/mL. For the same molecule, the minimal inhibitory concentration (MIC) in [14] came to 32 µg/mL (≈ 107 µM); in [15] (MRSA), 64 µg/mL (≈ 213 µM). In the data set on Gram-positive bacteria, this molecule came in with an MIC values range of 4 to 64 µg/mL. For the same molecule, the bactericidal activity result in the data set on bacteria tested is given as “bactericidal activity”.
